Experimental data taken from patent publication US20220267271A1, “WNT ACTIVATORS AND METHODS OF USE” (MAYO FOUNDATION FOR MEDICAL EDUCATION AND RESEARCH, priority 2019, published 2022).
≈ marks a conversion by molar mass, not a printed value. Where two headings read alike, the source gives them in different places.

How the values were obtained:
Wnt/β-catenin signaling [1] = experiment: Luciferase reporter assay (Super8XTOPFlash) for Wnt/β-catenin signaling in HEK293 cells; assay type: cell-based; conditions: 24 h; for Wnt reporter activity / activation of Wnt/β-catenin signaling: HEK293 cells; for EC50: Homo sapiens, Wnt3A plasmid-transfected HEK293 cells, 30-30,000 nM, mean and SD of 3-7 independent experiments
Protocol: (§1) (A) structures of niciosamide and CI-994; (B) HEK293 cells were transfected with Super8XTOPFlash and β galactosidase vectors along with Wnt3A or control vector. After 24 hours incubation, cells were treated with CI-994 at the indicated concentration for 24 hr. The luciferase activity was then measured and normalized to the activity of the β-galactosidase. (C) HT1080 cells stably transduced LRP6 with HA tag were treated with niciosamide and CI-994 at the indicated concentrations for 24 h. The levels of HA-LRP6 were examined by Western blot with anti-HA antibody. (D) Western blots showing the depletion of LRP6 after 2 days of transiently transfection of 50 nM LRP6 siRNA in HEK293 cells. ON-TARGETplus double-stranded siRNA oligomers against human LRP6 and non-specific scrambled siRNA control (Stealth RNAi™ siRNA Negative Control, Med GC) were purchased from Thermo Scientific. siRNA LRP6-1, siRNA LRP6-2 and control siRNA were Thermo Scientific catalog numbers J-003845-09, J-003845-11 and 12935300, respectively. (E) HEK293 cells were transfected with LRP6 siRNAs, and after 8 h incubation were further transfected with Super8XTOPFlash construct and β galactosidase-expressing vector. After 24 h incubation, the cells were treated with CI-994 (16 μM) for 24 h. The luciferase activity was then measured and normalized to β-galactosidase activity. All the values are the average of triplicate determinations with the SD values indicated by error bars. **P<0.01 versus corresponding control value.
HEK293 cells were transfected with SuperXTOPFlash and β-galactosidase vectors along with Wnt3A or control vector. After 24 h incubation, cells were treated with 1015 or 1039 at the indicated concentrations for 24 h. The luciferase activity was then measured and normalized to the activity of the β-galactosidase. All the values are the average of triplicate determinations with the SD values indicated by error bars. This experiment is representative of at least three such experiments performed with similar data.
Luciferase reporter assay for Wnt/β-catenin signaling: HEK293 cells were plated into 24-well plates. After overnight culture, the cells were transiently transfected with the Super8XTOPFlash luciferase construct and β-galactosidase-expressing vector along with or without Wnt3A plasmid. After 24 h incubation, cells were treated with each individual compound at the indicated concentrations for 24 h. Cells were then lysed and both luciferase and β-galactosidase activities were determined. The luciferase activity was normalized to the β-galactosidase activity.
HEK293 cells were plated into 24-well plates. After overnight culture, the cells were transiently transfected with the Super8XTOPFlash luciferase construct and β-galactosidase-expressing vector along with the Wnt3A plasmid. After 24 h incubation, the cells were treated with each individual compound at 30-30,000 nM in triplication for 24 h. The cells were then lysed, and luciferase and β-galactosidase activities were determined with the luciferase assay system (Promega, Cat. #E1501) and β-galactosidase assay system (Promega, Cat. #E2000), respectively. The luciferase activity was normalized to the s-galactosidase activity, and the EC50 values were calculated by use of GraphPad software, and shown in the below table. All the EC50 values (mean and SD) are from 3-7 independent experiments.

C2C12 cells = experiment: Alkaline phosphatase (ALP) activity assay, osteoblastic differentiation of C2C12 cells; assay type: cell-based; conditions: dose-response 0.1-12.8 μM, 72 h
Protocol: C2C12 cells were seeded into 24-well plates (1×10^5 cells/well). After culture overnight, the cells were treated with a Wnt activator at 0.8 μM (A) and 1.6 μM (B) for 72 h. The ALP activity was measured by ALP assay kit from AnaSpec (AS-72146). All the values are the average of triple determinations with the s.d. indicated by error bars. *P<0.05, **P<0.01 versus corresponding control value. This experiment is a representation of two such experiments performed with similar data.
C2C12 cells were seeded into 24-well plates (1×10^5 cells/well). After culture overnight, the cells were treated with the noted compounds at 0, 0.1, 0.2, 0.4, 0.8, 1.6, 3.2, 6.4 and 12.8 μM for 72 hours. The ALP activity was measured by ALP assay kit from AnaSpec (AS-72146). All the values are the average of triple determinations with the s.d. indicated by error bars.
Alkaline phosphatase (ALP) activity assay: C2C12 cells in 24-well plates were treated with each individual compound at the indicated concentrations for 72 h. Cells were then harvested for assay of ALP activity with the ALP assay kit (AnaSpec) according to the manufacturers specifications.

[2] = Aqueous (kinetic) solubility assay in PBS pH 7.4; assay type: physicochemical; conditions: phosphate-buffered saline, 25 °C, pH 7.4, aqueous buffer, kinetic from dmso stock, PBS pH 7.4, 2% DMSO, two hours, assay range 2-200 μM
Protocol: Aqueous solubility assay: Using a 10 mM stock solution of the compound in 100% DMSO, dilutions were prepared to a theoretical concentration of 200 μM in duplicates in phosphate-buffered saline pH 7.4 with 2% final DMSO. In parallel, compound dilutions in 50% acetonitrile/PBS were prepared to theoretical concentrations of 0 μM (blank), 50 μM, 100 μM and 200 μM with 2% final DMSO to generate calibration curves. The experimental compound dilutions in PBS were further allowed to equilibrate at 25° C. on a thermostatic orbital shaker for two hours and then centrifuged at 14000 rpm, 5 min and filtered through HTS filter plates using a vacuum manifold. The supernatants of test compounds were diluted 2-fold with acetonitrile contained 4% DMSO before measuring. Ondansetron was used as reference compound to control proper assay performance. 200 μl of samples were transferred to 96-well plate and measured in 200-550 nm range with 5 nm step. The effective range of this assay is approximately 2-200 μM and the compounds returning values close to the upper limit of the range may have higher actual solubility (e.g. 5 ? deoxy-5-fluorouddine).

[3] = Metabolic stability in mouse liver microsomes; assay type: in vitro ADME; conditions: 2 μM, five time points over 40 min, NADPH
Protocol: Metabolic stability of several compounds (1009, 1011, 1015, 1020, and 1056) and 2 reference compounds (propranolol and imipramine) were determined in mouse liver microsomes at five time points over 40 min using HPLC-MS. Metabolic stability is defined as the percentage of parent compound lost over time in the presence of a metabolically active test system.
Metabolic stability in mouse liver microsomes: Mouse hepatic microsomes were isolated from pooled, perfused livers of Balb/c male mice according to the standard protocol. The batch of microsomes was tested for quality control using Imipramine, Propranolol and Verapamil as reference compounds. Microsomal incubations were carried out in 96-well plates in 5 aliquots of 40 μL each (one for each time point). Liver microsomal incubation medium contained PBS (100 mM, pH 7.4), MgCl2 (3.3 mM), NADPH (3 mM), glucose-6-phosphate (5.3 mM), glucose-6-phosphate dehydrogenase (0.67 units/ml) with 0.42 mg of liver microsomal protein per ml. Control incubations were performed replacing the NADPH-cofactor system with PBS. Test compound (2 μM, final solvent concentration 1.6%) was incubated with microsomes at 37° C., shaking at 100 rpm. Incubations were performed in duplicates. Five time points over 40 minutes had been analyzed. The reactions were stopped by adding 12 volumes of 90% acetonitrile-water to incubation aliquots, followed by protein sedimentation by centrifuging at 5500 rpm for 3 minutes. […]. Supernatants were analyzed using the HPLC system coupled with tandem mass spectrometer.
The elimination constant (kel), half-life (t1/2) and intrinsic clearance (Clint) were determined in plot of […] versus time, using linear regression analysis: […]

Wnt/β-catenin signaling [4] = conditions: cancer cells; cited from earlier work
LRP6 = experiment: Wnt reporter assay in HEK293 cells after LRP6 siRNA knockdown; assay type: cell-based, human; conditions: CI-994 16 μM, 1011, 1015, 1023 1 μM, 24 h
Protocol: as §1
(A) HT1080 cells stably transduced with human LRP6 with HA tag were treated with niciosamide (1 μM) and other compounds as noted (1 μM) for 24 hr. The levels of HA-LRP6 were examined by Western blots with anti-HA antibody. All samples were also probed with anti-actin antibody to verify equal loading. This experiment is a representative of two such experiments performed with similar data. (B) N2a cells were treated with 1015 and 1011 at the indicated concentrations for 24 h. The expression levels of LRP6, β-catenin and actin were examined by Western blotting. This experiment is a representative of three such experiments performed with similar data. (C) HEK293 cells were transfected with LRP6 siRNAs, and after 8 h incubation were further transfected with Super8XTOPFlash construct and β galactosidase-expressing vector. ON-TARGETplus double-stranded siRNA oligomers against human LRP6 and non-specific scrambled siRNA control (Stealth RNAi™ siRNA Negative Control, Med GC) were purchased from Thermo Scientific. siRNA LRP6-1, siRNA LRP6-2 and control siRNA were Thermo Scientific catalog numbers J-003845-09, J-003845-11 and 12935300, respectively. […] The luciferase activity was then measured and normalized to β-galactosidase activity. […]

[5] = read-out: PBS solubility, pH 7.4, μM Exp1
[6] = read-out: PBS solubility, pH 7.4, μM Exp2
[7] = read-out: PBS solubility, pH 7.4, μM Mean

SMILES: Nc1ccccc1NC(=O)c1ccc(C(=O)NCC2CCCN2CCc2ccccc2)cn1 (stereo not shown) [Compound 1039]
- Wnt reporter activity / activation of Wnt/β-catenin signaling (Wnt/β-catenin signaling [1]): activate
- EC50 (Wnt/β-catenin signaling [1]): 0.298 ± 0.025 µM

SMILES: COCCN1CCCC1CNC(=O)c1ccc(C(=O)Nc2ccccc2N)nc1 (stereo not shown) [Compound 1030]
- EC50 (Wnt/β-catenin signaling [1]): 0.483 ± 0.04 µM

SMILES: Nc1ccccc1NC(=O)c1ccc(C(=O)NCCN2CCCC3CCCCC32)cn1 (stereo not shown) [Compound 1009]
- EC50 (Wnt/β-catenin signaling [1]): 0.601 ± 0.101 µM
- potency in inducing C2C12 osteoblastic differentiation compared with CI-994 (C2C12 cells): more potent than CI-994
- solubility at 2 h [2, 5]: 197 µM (≈ 83 µg/mL)
- solubility at 2 h [2, 6]: 191 µM (≈ 80.5 µg/mL)
- solubility at 2 h [2, 7]: 194 µM (≈ 81.8 µg/mL)
- stability in mouse hepatic microsomal system [3]: moderate stability

SMILES: Nc1ccccc1NC(=O)c1ccc(C(=O)NCC2CCN2C2CCCCCC2)cn1 (stereo not shown) [Compound 1050]
- EC50 (Wnt/β-catenin signaling [1]): 0.408 ± 0.077 µM

SMILES: Cn1cc(CNCC2CCN(c3ncc(C(=O)NO)cn3)CC2)c2ccccc21 [JNJ-26481585, reference compound]
- Wnt reporter activity / activation of Wnt/β-catenin signaling (Wnt/β-catenin signaling [1]): unable to activate

SMILES: Nc1ccccc1NC(=O)c1ccc(NC(=O)CCN2CCC[C@@H]3CCCC[C@@H]32)cn1 (racemic) [Compound 1059]
- EC50 (Wnt/β-catenin signaling [1]): 0.494 ± 0.147 µM

SMILES: Cc1nccn1CC1CCc2c(c3ccccc3n2C)C1=O (stereo not shown) [Ondansetron, reference compound]
- solubility at 2 h [2, 5]: 109 µM (≈ 32 µg/mL)
- solubility at 2 h [2, 6]: 113 µM (≈ 33.2 µg/mL)
- solubility at 2 h [2, 7]: 111 µM (≈ 32.6 µg/mL)

SMILES: COc1ccc(CN2CCC2CNC(=O)c2ccc(C(=O)Nc3ccccc3N)nc2)cc1 (stereo not shown) [Compound 1041]
- EC50 (Wnt/β-catenin signaling [1]): 0.596 ± 0.079 µM

SMILES: O=C(CCCCCN1C(=O)c2cccc3cccc(c23)C1=O)NO [Scriptaid, reference compound]
- Wnt reporter activity / activation of Wnt/β-catenin signaling (Wnt/β-catenin signaling [1]): unable to activate

SMILES: Nc1ccccc1NC(=O)c1ccc(C(=O)NCCN2CCC3(CCCCC3)CC2)cn1 [Compound 1013]
- EC50 (Wnt/β-catenin signaling [1]): 0.444 ± 0.036 µM

SMILES: CCN1CCCC1CNC(=O)c1ccc(C(=O)Nc2ccccc2N)nc1 (stereo not shown) [Compound 1028]
- EC50 (Wnt/β-catenin signaling [1]): 0.519 ± 0.024 µM

SMILES: Nc1ccccc1NC(=O)c1ccc(C(=O)NCC2CCN2C2CCCC2)cc1 (stereo not shown) [Compound 1021]
- EC50 (Wnt/β-catenin signaling [1]): 1.39 ± 0.643 µM

SMILES: O=C(Nc1ccc([N+](=O)[O-])cc1Cl)c1cc(Cl)ccc1O [Niclosamide, 5-chloro-N-[2-chloro-4-nitrophenyl]-2-hydroxy benzamide]
- Wnt/β-catenin signaling (by inducing LRP6 degradation) (Wnt/β-catenin signaling [4]): suppresses

SMILES: Nc1ccccc1NC(=O)c1ccc(C(=O)NCC2CCN2C2CCCCC2)cn1 (stereo not shown) [Compound 1045]
- EC50 (Wnt/β-catenin signaling [1]): 0.507 ± 0.128 µM

SMILES: Nc1ccccc1NC(=O)c1ccc(C(=O)NCC2CCCN2C2CCCCC2)cn1 (stereo not shown) [Compound 1046]
- EC50 (Wnt/β-catenin signaling [1]): 0.532 ± 0.038 µM

SMILES: Cc1cc(Cl)ccc1OCCCC(=O)NO [Droxinostat, reference compound]
- Wnt reporter activity / activation of Wnt/β-catenin signaling (Wnt/β-catenin signaling [1]): unable to activate

SMILES: CC1CCCC(C)N1CCC(=O)Nc1ccc(C(=O)Nc2ccccc2N)nc1 (stereo not shown) [Compound 1023]
- EC50 (Wnt/β-catenin signaling [1]): 0.496 ± 0.195 µM
- effect of knockdown of LRP6 expression on the compound's effect on Wnt/β-catenin signaling (LRP6): significantly attenuated

SMILES: Nc1ccccc1NC(=O)c1ccc(C(=O)NCC2CCCN2CC2CCCCC2)cn1 (stereo not shown) [Compound 1038]
- EC50 (Wnt/β-catenin signaling [1]): 0.526 ± 0.268 µM

SMILES: CC(=O)Nc1ccc(C(=O)Nc2ccccc2N)nc1 [Compound 1056]
- stability in mouse hepatic microsomal system [3]: good stability
